The target in one assay is CYP3A4 (Homo sapiens, UniProt P08684). The assay can be described thus: Cytochrome P450 inhibition, human recombinant CYP3A4. The assay is classed as in vitro ADME. As to conditions: recombinant human CYP, 5 minutes, 37° C. The protocol: (§1) Inhibitory activity of the compounds towards CYP1A2, 2C9, 2C19, 2D6, and 3A4 was evaluated using human recombinant CYPs. Test compounds and reference inhibitors were initially prepared from their stock solutions in a mixture solvent of DMSO/ACN (10/90) at a concentration of 200-fold of the final. A 3-fold serial dilution (1/3, 1/9, 1/27 etc.) was made in the DMSO/ACN mixture solvent to generate 7 consecutive concentrations. The serially diluted solutions of test compounds and reference inhibitors (positive controls) were further diluted directly in recombinant human CYP enzymes in assay buffer (0.1 M potassium phosphate buffer, pH7.4) to reach the concentration of 2-fold of the final (2×). Aliquots of 30 μL of 2× compound/enzyme solutions were loaded to a 96-well assay plates and preincubated at 37° C. for 10 minutes. An aliquot of 15 μL of prewarmed 4× substrate solutions made in the assay buffer was added into each of the wells containing the 2× compound/enzyme mixtures. Finally, the reaction was initiated by adding an aliquot of 15 μL of 4×NADPH made in the assay buffer and the assay plates were further incubated at 37° C. for a time period designated for each isoform (5 minutes for 3A4, 20 minutes for 2C9, 10 minutes for 2D6 and 2C19, and 15 minutes for 1A2). The reactions were stopped by adding 120 μL ACN containing the stable isotopes of the metabolites for corresponding CYP isoforms, followed by vortexing for 5 minutes and centrifugation at 4000 rpm for 15 minutes. The resulting supernatants were transferred into new 96-well plates for LC-MS/MS analysis. Experiments are performed in duplicate. The inhibitory concentration of 50% of the enzymatic activity is calculated.

The next assay deals with T1, CYP1A2 (Homo sapiens, UniProt P05177).
T1 sequence (P05177 1-516): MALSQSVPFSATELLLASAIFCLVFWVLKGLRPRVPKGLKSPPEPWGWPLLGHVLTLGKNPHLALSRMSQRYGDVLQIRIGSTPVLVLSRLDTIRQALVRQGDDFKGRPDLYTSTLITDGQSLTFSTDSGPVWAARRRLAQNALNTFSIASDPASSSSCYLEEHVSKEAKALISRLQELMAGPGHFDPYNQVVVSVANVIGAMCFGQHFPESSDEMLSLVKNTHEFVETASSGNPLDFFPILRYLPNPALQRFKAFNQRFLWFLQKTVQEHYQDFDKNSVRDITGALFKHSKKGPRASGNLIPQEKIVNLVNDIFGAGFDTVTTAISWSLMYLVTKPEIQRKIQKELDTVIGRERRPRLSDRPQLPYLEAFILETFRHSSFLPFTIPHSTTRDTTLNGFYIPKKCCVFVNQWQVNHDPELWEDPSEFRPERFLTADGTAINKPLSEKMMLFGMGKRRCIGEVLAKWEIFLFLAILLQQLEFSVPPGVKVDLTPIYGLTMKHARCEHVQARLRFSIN
The assay can be described thus: Cytochrome P450 inhibition, human recombinant CYP1A2. The assay is classed as in vitro ADME. As to conditions: recombinant human CYP, 15 minutes, 37° C. As to the method:
as §1

The target in the next assay is CYP2C19 (Homo sapiens, UniProt P33261). The assay can be described thus: Cytochrome P450 inhibition, human recombinant CYP2C19. The assay is classed as in vitro ADME. As to conditions: recombinant human CYP, 10 minutes, 37° C. The protocol:
as §1

A further assay deals with T2, aromatase (Homo sapiens, UniProt P11511).
T2 construct: JEG-3 which constitutively expresses high amount of aromatase and steroid sulfatase; endogenous in cells; host or cells: JEG-3
T2 sequence (P11511 1-503): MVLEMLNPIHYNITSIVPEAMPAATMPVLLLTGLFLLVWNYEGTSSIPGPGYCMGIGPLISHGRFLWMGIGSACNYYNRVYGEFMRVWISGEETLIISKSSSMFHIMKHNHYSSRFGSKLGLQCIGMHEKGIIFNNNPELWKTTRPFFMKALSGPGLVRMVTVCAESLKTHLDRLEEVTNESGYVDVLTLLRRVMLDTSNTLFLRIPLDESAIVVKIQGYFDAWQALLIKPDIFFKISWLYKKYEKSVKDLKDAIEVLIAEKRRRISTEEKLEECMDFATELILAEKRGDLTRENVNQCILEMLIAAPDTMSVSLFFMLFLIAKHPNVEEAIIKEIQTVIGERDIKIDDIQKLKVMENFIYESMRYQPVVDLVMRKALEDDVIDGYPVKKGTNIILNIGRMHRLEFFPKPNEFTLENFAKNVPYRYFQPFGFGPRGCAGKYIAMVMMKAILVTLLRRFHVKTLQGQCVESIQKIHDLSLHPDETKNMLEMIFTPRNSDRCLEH
As to the kind of experiment: Aromatase inhibition assay in JEG-3 cells ([1β-3H] androstenedione, tritiated water release). The assay is classed as cell-based. As to conditions: 1.25 hour incubation, duplicate. As to the method: (§2) Aromatase and steroid sulfatase enzymes inhibitions were evaluated in the human chorionic carcinoma cell line JEG-3 which constitutively expresses high amount of aromatase and steroid sulfatase.
For aromatase inhibition assay, JEG-3 cells were seeded into 96-well plates at 35,000 cells/well and maintained in MEM containing supplements. When reaching 80% confluent, the cells were washed once with serum-free MEM, incubated with [1β-^3H] androstenedione (A4, 0.2 μCi/ml) for 1.25 hour in the presence of the test substances added in a concentration series. The product, tritiated water (^3H2O), was separated using 2.5% (w/v) dextran-coated charcoal at 4-8° C. for 2 hours. The supernatant radioactivity was measured by a MicroBeta scintillation counter.
(§3) Experiments are performed in duplicate. The inhibitory concentration of 50% of the enzymatic activity is calculated.

A further assay deals with T3, steroid sulfatase (Homo sapiens, UniProt P08842).
T3 construct: JEG-3 which constitutively expresses high amount of aromatase and steroid sulfatase; endogenous in cells; host or cells: JEG-3
T3 sequence (P08842 22-583): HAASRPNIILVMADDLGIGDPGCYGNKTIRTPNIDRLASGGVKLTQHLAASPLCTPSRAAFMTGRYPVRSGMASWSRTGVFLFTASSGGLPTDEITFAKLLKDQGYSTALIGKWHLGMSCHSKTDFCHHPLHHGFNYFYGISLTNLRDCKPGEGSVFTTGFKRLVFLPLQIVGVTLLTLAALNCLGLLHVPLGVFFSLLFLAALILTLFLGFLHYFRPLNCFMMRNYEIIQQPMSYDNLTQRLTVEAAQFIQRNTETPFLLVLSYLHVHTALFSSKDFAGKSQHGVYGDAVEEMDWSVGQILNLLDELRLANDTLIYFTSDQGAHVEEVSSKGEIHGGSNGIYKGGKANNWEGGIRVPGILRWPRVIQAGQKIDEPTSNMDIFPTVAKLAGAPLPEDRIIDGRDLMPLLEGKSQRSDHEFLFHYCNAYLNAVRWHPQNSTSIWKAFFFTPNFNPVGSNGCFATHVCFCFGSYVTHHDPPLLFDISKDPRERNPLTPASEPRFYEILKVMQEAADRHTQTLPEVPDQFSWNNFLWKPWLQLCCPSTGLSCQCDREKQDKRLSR
The assay can be described thus: Steroid sulfatase (STS) inhibition assay in JEG-3 cells ([6,7-3H] estrone sulfate). The assay is classed as cell-based. As to conditions: 1 hour at 37° C., duplicate. As to the method:
as §2
For STS assay, JEG-3 cells were seeded into 24-well culture plates at 150,000 cells/ml/well and maintained in MEM containing supplements overnight. When reaching 80% confluent, the cells were washed once with serum-free MEM, loaded with 1 ml of substrate mix containing [6,7-3H] Estrone sulfate (E1S, 0.6 μCi/ml) and [4-14C] Estrone (E1, 4 nCi/ml) in the presence of compounds in a concentration series, and incubated for 1 hour at 37° C. The product [3H]E1 was separated from E1S by toluene partition using [4-14C]E1 to monitor extraction procedural losses, and the toluene fraction radioactivity was measured by a MicroBeta scintillation counter.
as §3

The next assay concerns the target CYP2D6 (Homo sapiens, UniProt P10635). The assay can be described thus: Cytochrome P450 inhibition, human recombinant CYP2D6. The assay is classed as in vitro ADME. As to conditions: recombinant human CYP, 10 minutes, 37° C. As to the method:
as §1

The next assay addresses CYP2C9 (Homo sapiens, UniProt P11712). As to the kind of experiment: Cytochrome P450 inhibition, human recombinant CYP2C9. As to conditions: recombinant human CYP, 20 minutes, 37° C. The format is in vitro ADME. As to the method: as §1

Some results are limits rather than exact numbers.

Sequence of CYP2C19 (P33261 whole entry): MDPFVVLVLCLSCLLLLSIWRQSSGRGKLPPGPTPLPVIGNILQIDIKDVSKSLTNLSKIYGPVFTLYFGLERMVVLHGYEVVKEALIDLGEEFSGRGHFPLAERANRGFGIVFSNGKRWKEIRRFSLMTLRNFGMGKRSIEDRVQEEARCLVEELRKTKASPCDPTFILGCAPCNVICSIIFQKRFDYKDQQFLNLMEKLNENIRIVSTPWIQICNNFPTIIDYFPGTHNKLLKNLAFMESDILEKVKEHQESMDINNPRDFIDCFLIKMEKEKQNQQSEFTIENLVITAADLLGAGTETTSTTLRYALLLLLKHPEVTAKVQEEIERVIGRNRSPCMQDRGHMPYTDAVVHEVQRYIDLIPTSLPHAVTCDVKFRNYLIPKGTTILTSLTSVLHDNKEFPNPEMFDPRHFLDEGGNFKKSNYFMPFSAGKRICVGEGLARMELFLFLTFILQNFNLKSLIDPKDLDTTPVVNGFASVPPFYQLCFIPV
Sequence of CYP2C9 (P11712 whole entry): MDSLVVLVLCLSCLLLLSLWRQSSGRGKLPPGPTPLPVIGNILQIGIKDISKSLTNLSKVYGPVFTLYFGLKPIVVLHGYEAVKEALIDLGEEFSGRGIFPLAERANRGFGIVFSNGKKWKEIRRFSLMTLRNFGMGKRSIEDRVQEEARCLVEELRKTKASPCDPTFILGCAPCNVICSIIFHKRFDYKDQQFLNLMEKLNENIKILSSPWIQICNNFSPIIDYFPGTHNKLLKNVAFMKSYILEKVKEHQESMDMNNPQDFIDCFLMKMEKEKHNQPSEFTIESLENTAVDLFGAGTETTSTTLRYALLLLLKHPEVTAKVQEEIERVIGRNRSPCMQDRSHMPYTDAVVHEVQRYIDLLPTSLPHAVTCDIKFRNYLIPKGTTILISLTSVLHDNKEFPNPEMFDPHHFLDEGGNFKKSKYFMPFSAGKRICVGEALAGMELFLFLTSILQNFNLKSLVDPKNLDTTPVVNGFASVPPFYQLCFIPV
Sequence of CYP2D6 (P10635 whole entry): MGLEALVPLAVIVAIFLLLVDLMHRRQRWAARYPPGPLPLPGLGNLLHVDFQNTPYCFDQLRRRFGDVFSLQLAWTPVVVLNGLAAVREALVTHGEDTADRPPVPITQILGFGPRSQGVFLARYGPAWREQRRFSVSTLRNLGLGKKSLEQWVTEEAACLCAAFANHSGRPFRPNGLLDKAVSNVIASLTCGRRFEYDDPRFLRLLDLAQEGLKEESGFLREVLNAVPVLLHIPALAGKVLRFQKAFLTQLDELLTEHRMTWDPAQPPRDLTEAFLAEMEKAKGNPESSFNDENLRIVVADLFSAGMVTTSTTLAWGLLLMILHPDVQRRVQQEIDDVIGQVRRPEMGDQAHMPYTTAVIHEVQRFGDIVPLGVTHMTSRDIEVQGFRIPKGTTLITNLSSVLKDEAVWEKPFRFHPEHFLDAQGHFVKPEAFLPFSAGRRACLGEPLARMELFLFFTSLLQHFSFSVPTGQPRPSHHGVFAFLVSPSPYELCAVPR
Sequence of CYP3A4 (P08684 whole entry): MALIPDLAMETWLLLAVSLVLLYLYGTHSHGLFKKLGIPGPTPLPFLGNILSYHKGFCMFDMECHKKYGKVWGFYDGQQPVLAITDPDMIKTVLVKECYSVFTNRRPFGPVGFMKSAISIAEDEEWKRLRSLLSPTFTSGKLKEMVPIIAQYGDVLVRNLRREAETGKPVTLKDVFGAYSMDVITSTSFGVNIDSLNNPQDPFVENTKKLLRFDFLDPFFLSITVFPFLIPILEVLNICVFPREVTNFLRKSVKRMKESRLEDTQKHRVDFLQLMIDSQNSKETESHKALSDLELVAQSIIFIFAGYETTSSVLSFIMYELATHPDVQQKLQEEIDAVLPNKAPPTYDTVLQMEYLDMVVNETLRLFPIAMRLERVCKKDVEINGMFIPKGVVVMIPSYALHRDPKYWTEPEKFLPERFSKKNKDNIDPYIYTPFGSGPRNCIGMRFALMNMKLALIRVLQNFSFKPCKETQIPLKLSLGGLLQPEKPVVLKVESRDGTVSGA

In the case of `N#Cc1cnc(Cn2cnc3ccccc32)nc1-c1ccc(OS(N)(=O)=O)cc1` [Example 9, 4-(2-((1H-Benzo[d]imidazol-1-yl)methyl)-5-cyanopyrimidin-4-yl)phenyl sulfamate], the IC50 at CYP3A4 was 3.68 µM; on CYP1A2, above 5 µM; on CYP2C19, above 5 µM; against aromatase, 0.0035 µM; against steroid sulfatase, 0.0018 µM; on CYP2D6 it was above 5 µM. On CYP2C9, the IC50 is above 5 µM.

In the case of `N#Cc1cnc(Cn2cnc3ccccc32)cc1-c1ccc(OS(N)(=O)=O)cc1` [Example 17, 4-(2-((1H-Benzo[d]imidazol-1-yl)methyl)-5-cyanopyridin-4-yl)phenyl sulfamate], the IC50 at CYP3A4 is above 5 µM; at CYP1A2, above 5 µM; at CYP2C19, above 5 µM; at aromatase, 0.0022 µM; on steroid sulfatase, 0.0039 µM; on CYP2D6 it was above 5 µM. Further, the 50% inhibitory concentration (IC50) on CYP2C9 was above 5 µM.

For the molecule `N#Cc1ccc(Nn2cnc3ccccc32)nc1-c1ccc(OS(N)(=O)=O)cc1` [Example 22, 4-(6-(1H-Benzo[d]imidazol-1-ylamino)-3-cyanopyridin-2-yl)phenyl sulfamate], the IC50 on CYP3A4 is above 5 µM; on CYP1A2, above 5 µM; on CYP2C19, above 5 µM; against aromatase, 0.0037 µM; at steroid sulfatase, 0.006 µM; on CYP2D6 it was above 5 µM. On CYP2C9, the IC50 was above 5 µM.

On to `N#Cc1ccc(Cn2cnc3cc(F)c(F)cc32)cc1-c1ccc(OS(N)(=O)=O)cc1` [Example 24, 2′-Cyano-5′-((5,6-difluoro-1H-benzo[d]imidazol-1-yl)methyl)biphenyl-4-yl sulfamate], for which the IC50 is 3.26 µM on CYP3A4; above 5 µM on CYP1A2; above 5 µM at CYP2C19; 0.0009 µM at aromatase; 0.002 µM at steroid sulfatase; above 5 µM at CYP2D6. Moreover, the IC50 on CYP2C9 was above 5 µM.

For `N#Cc1cnc(Nn2cnc3ccccc32)cc1-c1ccc(OS(N)(=O)=O)cc1` [Example 26, 4-(2-(1H-Benzo[d]imidazol-1-ylamino)-5-cyanopyridin-4-yl)phenyl sulfamate], the IC50 is 2.54 µM on CYP3A4; above 5 µM at CYP1A2; above 5 µM on CYP2C19; 0.0027 µM on aromatase; 0.0118 µM at steroid sulfatase; above 5 µM on CYP2D6. For the same molecule, the IC50 at CYP2C9 was above 5 µM.

As to `N#Cc1ncc(Cn2cnc3ccccc32)cc1-c1ccc(OS(N)(=O)=O)cc1` [Example 31, 4-(5-((1H-Benzo[d]imidazol-1-yl)methyl)-2-cyanopyridin-3-yl)phenyl sulfamate], the IC50 on CYP3A4 was above 5 µM; on CYP1A2, above 5 µM; at CYP2C19, above 5 µM; at aromatase, 0.0046 µM; on steroid sulfatase, 0.0105 µM; on CYP2D6, above 5 µM. Moreover, on CYP2C9, the IC50 was above 5 µM.

With `N#Cc1cnc(Cn2cnc3cccnc32)cc1-c1ccc(OS(N)(=O)=O)cc1` [Example 36, 4-(2-((3H-Imidazo[4,5-b]pyridin-3-yl)methyl)-5-cyanopyridin-4-yl)phenyl sulfamate], the IC50 on CYP3A4 is above 5 µM; at CYP1A2 it was above 5 µM; at CYP2C19, above 5 µM; against aromatase it was 0.002 µM; at steroid sulfatase it was 0.0105 µM; on CYP2D6, above 5 µM. Also, the IC50 at CYP2C9 is above 5 µM.

By IC50 is commonly meant the midpoint of a concentration-inhibition curve.

The values are drawn from US9682941B2, “Substituted biphenyl analogues as dual inhibitors of aromatase and sulfatase” (ESTRYX PHARMA LIMITED, priority 2013, dated 2017).
